Values after ≈ are worked out from the molar mass of the structure shown.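 Five concentrations, 48 hours, 96-well plates. Here, GI50 denotes the concentration required for 50% inhibition of growth. TGI is the concentration that stops growth completely.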
Legend:
Experiment in all cases: growth of human tumour cells (NCI), 48 h
[1] = system: M19-MEL melanoma
[2] = system: A549 NSCLC
[3] = system: HOP-92 NSCLC
[4] = system: MCF7 breast
[5] = system: DU-145 prostate
[6] = system: MDA-MB-435
[7] = system: MDA-MB-231 breast
[8] = system: HS 578T breast
[9] = system: T-47D breast
[10] = system: MDA-N

Row | SMILES | TGI [1] [µM] | TGI [2] | TGI [3] [µM] | GI50 [4] | TGI [4] | GI50 [5] | TGI [5] | GI50 [6] | TGI [6] | GI50 [7] | TGI [7] | GI50 [8] | TGI [8] | GI50 [2] | GI50 [9] | TGI [9] | GI50 [10] [mg/L] | TGI [10] | GI50 [3] [µM]
1 | O=C1CCCCC2N(C(c3ccccc3)c3ccccc3)CC[C@@]12c1ccccc1 (mixture of isomers) | > 10 | > 10 µM | > 10 | – | – | – | – | – | – | – | – | – | – | – | – | – | – | – | –
2 | O=C1NN(C2=NNC3(C(=O)N2)c2ccccc2-c2ccccc23)C(c2ccccc2)=N/C1=C/c1ccc(O)cc1 | – | > 150 mg/L | – | 39.4 mg/L | > 150 mg/L | 90.8 mg/L | > 150 mg/L | 69.9 mg/L | > 150 mg/L | 26.2 mg/L | 71.7 mg/L | 50.4 mg/L | > 150 mg/L | 74.7 mg/L | 27 mg/L | > 150 mg/L | 56.8 (≈ 108 µM) | > 150 mg/L | –
3 | Clc1ccccc1/C=C/c1cscn1 | > 100 | – | – | – | – | – | – | – | – | – | – | – | – | – | – | – | – | – | –
4 | Cc1nc2ccccc2n1C(=O)c1c(F)c(F)c(F)c(F)c1F | – | > 100 µM | 27.9 | – | > 100 µM | – | 76.5 µM | – | 20 µM | – | 32 µM | – | > 100 µM | – | – | > 100 µM | – | 33.2 µM | –
5 | N#Cc1c(Cl)c2cc([N+](=O)[O-])ccc2n2c1nc1ccccc12 | – | > 100 µM | – | – | 4.56 µM | – | 18.4 µM | – | 4.65 µM | – | 0.858 µM | – | 18 µM | – | – | 4.8 µM | – | > 100 µM | –
6 | C=CC1(C)CCC2=C(CCC3C(C)(C(=O)OC)CCCC23C)C1=O (centres undefined) | 36 | – | – | – | – | – | – | – | – | – | – | – | – | – | – | – | – | – | –
7 | Cc1cc(O)c(C(C)(C)C)cc1Sc1cc(C(C)(C)C)c(O)cc1C | – | 10.3 µM | 6.17 | 2.61 µM | 9 µM | 3.69 µM | 13.2 µM | 1.98 µM | 4.14 µM | 2.16 µM | 5.06 µM | 3.02 µM | 13.9 µM | 3.1 µM | 2.09 µM | 13.4 µM | – | – | 2.49

Source: PubChem BioAssay (NCI)
